Laboratory results as given in US20140329872A1, “TREATMENT OF HYPERTENSION AND/OR PREVENTION OR TREATMENT OF HEART FAILURE IN A MAMMAL RECEIVING ANTI-COAGULANT THERAPY” (NOVARTIS AG, priority 2010, published 2014).
Like-named read-outs stand apart in the source and are kept apart here.

Columns and labels:
[1] = test system: extrinsic pathway of coagulation
Source text: The prothrombin time (PT) and its derived measures of prothrombin ratio (PR) and international normalized ratio (INR) are measures of the extrinsic pathway of coagulation. […] The prothrombin time is the time it takes blood plasma to clot after addition of tissue factor (obtained from animals). The result (in seconds) of the prothrombin time performed in a normal individual will vary depending the analytical system and method used. This is due to differences between different batches of manufacturer's tissue factor used to perform the test.
The international normalized ratio (INR) was devised to standardize the results. The INR is the ratio of a patient's prothrombin time (PT) to a normal (control) sample, raised to the power of the International Sensitivity Index (ISI) value for the analytical system used.

[2] = for AUCinf, adjusted geometric mean / AUClast, adjusted geometric mean / Cmax, adjusted geometric mean: healthy subjects, N=25; for pharmacokinetic interaction with LCZ696 (steady-state concentration-time profiles): in the presence and absence of LCZ696, FIG. 1a, 1b
Source text: This study employs a single blind, randomized, two-period, crossover design. All subjects are blinded to the treatment to eliminate study bias. Each subject participates in a screening period, two baseline periods, and two treatment periods. A washout period of at least 10 days but not more than 14 days separates each treatment period.
This study employs a single blind, randomized, two-period, crossover design. Twenty six healthy male and female subjects are enrolled to ensure at least 20 completers. Each subject participates in a screening period (day-21 to day-2), two baseline periods (day-1), two treatment periods, a washout period of at least 10 days separating the treatment periods, and a study completion evaluation. Subjects undergo routine safety testing during screening, including physical, routine hematology, biochemistry, urinalysis, viral serology screening, pregnancy testing (female subjects), urine drug screening, alcohol screening, standard 12-lead electrocardiogram (ECG), and vital signs assessments to establish eligibility.
Subjects are randomized into the following two treatment sequences during treatment Period 1 and Period 2 as shown.
Treatment Period 1: Those subjects who successfully pass screening (Days-21 to -2) report to the study center in the morning of the day prior to the initial dosing (Day-1) for admission into the study center, at which time they undergo baseline safety evaluations as conducted during screening (except viral serology). All baseline safety evaluation results should be available prior to first dosing. Subjects are domiciled for at least 11 days during each treatment period.
Serial samples for drug/placebo pharmacokinetics are collected on Day 4 for up to 12 hours post morning dose.
In the evening prior to each of full pharmacokinetic (PK) assessment days (Day 4 & day 5) the subjects fast overnight (10-12 hours) prior to dosing, and continue to fast until 4 hours post-dose. On Day 1, 2, 3, 6, 7, 8, 9, and 10 the subjects are dosed following an overnight fast of 10-12 hours and receive breakfast 30 minutes post-dose, and evening snacks are provided 30 minutes after evening dosing on all dosing days.
Treatment Period 2: Subjects are required to return to the study center following a washout period of at least 10 days for period 2 baseline evaluation (Day-1). All study related activities including pharmacokinetic sampling for all treatments follow the same schedule as in Period 1.

[3] = healthy subjects, Warfarin 25 mg single dose with LCZ696 200 mg b.i.d. or with placebo, N=25
[4] = LCZ696 200 mg b.i.d. + Warfarin 25 mg single dose on Day 5
[5] = Placebo + Warfarin 25 mg single dose on Day 5

CC(=O)CC(c1ccccc1)c1c(O)c2ccccc2oc1=O (racemic) [Warfarin, (RS)-4-hydroxy-3-(3-oxo-1-phenylbutyl)-2H-chromen-2-one]
Mean INR (AUCINR/144), geometric mean [1, 3]: 1.30 | Mean Prothrombin time (AUCPT/144), geometric mean [1, 3]: 16.51 s | Peak INR, geometric mean [1, 3]: 1.90 | Peak prothrombin time, geometric mean [1, 3]: 22.00 s | interaction with LCZ696 as indicated by the INR ([1]; warfarin (racemic) administration, FIG. 3): lack of interaction | interaction with LCZ696 as indicated by prothrombin times ([1]; warfarin (racemic) in the presence and absence (placebo) of LCZ696, FIG. 2): lack of interaction

CC(=O)C[C@H](c1ccccc1)c1c(O)c2ccccc2oc1=O [R-Warfarin]
AUCinf, adjusted geometric mean [2, 4]: 64891.96 ng·h/mL | AUClast, adjusted geometric mean [2, 4]: 58796.87 ng·h/mL | Cmax, adjusted geometric mean [2, 4]: 1325.29 ng/mL | AUCinf, adjusted geometric mean [2, 5]: 66153.48 ng·h/mL | AUClast, adjusted geometric mean [2, 5]: 59534.11 ng·h/mL | Cmax, adjusted geometric mean [2, 5]: 1373.71 ng/mL | pharmacokinetic interaction with LCZ696 (steady-state concentration-time profiles) [2]: lack of pharmacokinetic interaction

CC(=O)C[C@@H](c1ccccc1)c1c(O)c2ccccc2oc1=O [S-Warfarin]
AUCinf, adjusted geometric mean [2, 4]: 50677.20 ng·h/mL | AUClast, adjusted geometric mean [2, 4]: 46647.81 ng·h/mL | Cmax, adjusted geometric mean [2, 4]: 1344.45 ng/mL | AUCinf, adjusted geometric mean [2, 5]: 52027.31 ng·h/mL | AUClast, adjusted geometric mean [2, 5]: 47570.37 ng·h/mL | Cmax, adjusted geometric mean [2, 5]: 1414.20 ng/mL | pharmacokinetic interaction with LCZ696 (steady-state concentration-time profiles) [2]: lack of pharmacokinetic interaction
